This test addresses mitochondrial NAD+-dependent malic enzyme (ME). Kind of test: NADH formation at […] nm, mitochondrial lysate, Ki from reciprocal plots. The class given is biochemical, Anopheles stephensi.
Take `O=C(O)C(O)C(=O)O` [Tartronate]: the affinity corresponds to a Ki of 610 nM.

Turning to `O=C(O)C(=O)O` [Oxalate], affinity was put at a Ki of 150 nM.

On to `O=C(O)CC(=O)C(=O)O` [Oxaloacetate], for which the Ki (in general, the equilibrium dissociation constant of an inhibitor or competing ligand from its target) stood at 120 nM.

The values are drawn from PMC3228860, “Mitochondrial NAD^+-dependent malic enzyme from Anopheles stephensi: a possible novel target for malaria mosquito control” (2011).
